Several values for one entry are separate records, joined by “and”; a condition that tells them apart may be missing. Identical values can stand only once. Entries after “also recorded” stand apart in the source; their conditions may differ.
Key:
VNO cells = test: In Vitro Study CL002: inward current in VNO cells; assay type: cell-based, human; details: for mean peak inward current: 10^−5 M
Procedure: In Vitro Study CL002. This study was conducted using VNO cells that had been collected from healthy male and female volunteers. […] In addition, the magnitude of the response was greater in cells from women than in cells from men.

VNO = test: In Vivo Study CL001: electrovomerogram (EVG), autonomic parameters and EEG after VNO stimulation; set-up: species or system human; key to performance summary: EDA / performance summary: α-CA / performance summary: EVG: + indicates a moderate increase in activity; ++ indicates a substantial increase in activity; details: for EVG, difference from the response to placebo: 200 pg vapor pulse to VNO; for mean peak amplitude of the EVG (electrovomerogram) response: single intranasal dose
Procedure: In Vivo Study CL001. This study was conducted in healthy male and female volunteers each tested with a single dose of (17β)19-norpregna-1,3,5(10)-trien-3-ol. The mean peak amplitude of the EVG (electrovomerogram) response to intranasal administration of (17β)19-norpregna-1,3,5(10)-trien-3-ol, reported as the magnitude of the difference from the response to placebo, was […] (13.9 mV in women and 5.3 mV in men difference from the response to placebo). […] In addition, the peak amplitude of the response in women was greater than that in men. Methods: For VNO stimulation, a 10^−8 M solution of (17β)19-norpregna-1,3,5(10)-trien-3-ol vomeropherin was prepared in propylene glycol (PG). A vapor pulse (duration: 2 seconds) of the vomeropherin was obtained bubbling clean air through the solution (air flow: 3 mL/min.). This delivered an estimated quantity of 200 pg of (17β)19-norpregna-1,3,5(10)-trien-3-ol to the VNO. The control was a pulse of PG alone in vapor form. Processing and analysis of the results was done off-line. The amplitude or frequency of the different parameters was measured. The mean and standard deviation of the mean were obtain for all parameters 5 minutes after stimulation with control, and (17β)19-norpregna-1,3,5(10)-trien-3-ol. The significance of the results was studied using the paired, two-tailed student t-test, and analysis of variance.

gonadotropin secretion = test: Study CL003: gonadotropin secretion study in healthy female volunteers; assay type: in vivo, human
Procedure: Study CL003 was designed to investigate possible effects of (17β)19-norpregna-1,3,5(10)-trien-3-ol on gonadotropin secretion in healthy female volunteers. Because gonadotropins typically are secreted in a pulsatile pattern with 4-6 peaks per day, (17β)19-norpregna-1,3,5(10)-trien-3-ol was administered at 10-minute intervals over a 6-hour period. This timing was provided in order to determine whether (17β)19-norpregna-1,3,5(10)-trien-3-ol affected the pattern of pulsatility and/or the magnitude of the gonadotropin release. […] To follow up on these anecdotal reports, the investigators gave the subjects a questionnaire one month after completing their participation in the study to assess this effect of (17β)19-norpregna-1,3,5(10)-trien-3-ol in a systematic fashion.

[1] = Study CL004: follow-on appetite study; assay type: in vivo, human; details: one dose every 10 minutes for 6 hours, interim findings
Procedure: Study CL004. Study CL004 was conducted as a follow-on to the surprising appetite results of study CL003, and was designed to provide a more focused investigation of the effects of (17β)19-norpregna-1,3,5(10)-trien-3-ol on appetite. […] Study CL004 was conducted after study CL003 had been completed.

[2] = Study CL005: food consumption and appetite study; assay type: in vivo, human; details: same dosing regimen; not after placebo; preliminary data analysis
Text: Study CL005. Study CL005 was designed to investigate in detail the effects of (17β)19-norpregna-1,3,5(10)-trien-3-ol -on food consumption in studies CL003 and CL004. The (17β)19-norpregna-1,3,5(10)-trien-3-ol dosing regimen was the same as had been used for the previous studies. Food intake and appetite were examined in this study in great detail. Subjects kept records of their appetite, food intake, etc., over a 3-4 month period.

[3] = Study CL006: mealtime dosing in metabolic unit, appetite and food intake; assay type: in vivo, human; details: some participants, dosing with mealtimes, informal analysis of blinded data
Text: Study CL006. Study CL006 was designed to provide an evaluation of a more clinically meaningful (17β)19-norpregna-1,3,5(10)-trien-3-ol dosing regimen, as well as to provide a more controlled environment in which to evaluate appetite and food intake effects. In this study, subjects received (17β)19-norpregna-1,3,5(10)-trien-3-ol in association with mealtimes, and they remained in a metabolic unit throughout the study.

[4] = dosed at 10-minute intervals over 6 hours

CC[C@H]1CC[C@H]2[C@@H]3CCc4cc(O)ccc4[C@H]3CC[C@]12C [(17β)19-norpregna-1,3,5(10)-trien-3-ol]
concentration of peak effect (inward current) (VNO cells; VNO cells): 10^−5 M | concentration at which inward current response was significantly different from the control response (VNO cells; VNO cells from men and women): ≥ 10^−7 M | response of VNO cells to application (VNO cells; cells from both men and women, magnitude dose dependent): development of an inward current | mean peak inward current (VNO cells; cells from men): 55 pA | mean peak inward current (VNO cells; cells from women): 96 pA | activity in the VNO (VNO; both female and male subjects): active | EDA compared with placebo (VNO; eight female subjects, 200 pg, p<0.05): increased significantly from placebo; also recorded: increased EDA | Other autonomic parameters and EMG (VNO; female subjects): remained unchanged | performance summary: EDA (VNO; female subjects): + | performance summary: EVG (VNO; female subjects): ++ | performance summary: α-CA (VNO; female subjects): ++ | Respiratory frequency (RF), difference from placebo (VNO; female subjects, 200 pg): +3.0 cycles/min | alpha-cortical activity (α-CA), difference from placebo (VNO; female subjects, 200 pg): +35.8 μV^2/Hz | beta-cortical activity (β-CA), difference from placebo (VNO; female subjects, 200 pg): −2.2 μV^2/Hz | body temperature (BT), difference from placebo (VNO; female subjects, 200 pg): +0.2 °C | cardiac frequency (CF), difference from placebo (VNO; female subjects, 200 pg): 0 beats/min | electromyogram (EMG), difference from placebo (VNO; female subjects, 200 pg): 0 Hz | EVG, difference from the response to placebo (VNO; female subjects): 13.9 mV and 13.8 mV | electrodermal activity (EDA), difference from placebo (VNO; female subjects, 200 pg, 5 minutes after stimulation): +109.4 μS | Alpha rhythm recorded from T4A2 compared with placebo (VNO; female subjects, p<0.05): increased significantly from placebo | beta rhythm in CA2 compared with placebo (VNO; female subjects, p<0.05): decreased beta rhythm | performance summary: EDA (VNO; male subjects): + | performance summary: EVG (VNO; male subjects): + | Body temperature compared with placebo (VNO; male subjects, p<0.05): decreased | alpha rhythm compared with placebo (VNO; male subjects, p<0.05): decreased | Other biological parameters (VNO; males): did not change significantly | EVG, difference from the response to placebo (VNO; men): 5.3 mV | EDA compared with placebo (VNO; men, p<0.05): increased EDA | EVG response compared with placebo (VNO; men, p<0.05): significantly greater than that to placebo; also recorded: significantly different from placebo | mean peak amplitude of the EVG (electrovomerogram) response (VNO; men): 30 mV | BT, difference from placebo (VNO; six male subjects): −1.2 | CF, difference from placebo (VNO; six male subjects): 0 | EDA, difference from placebo (VNO; six male subjects): +79.1 | EMG, difference from placebo (VNO; six male subjects): 0 | EVG, difference from placebo (VNO; six male subjects): +5.3 | RF, difference from placebo (VNO; six male subjects): −1.7 | α-CA, difference from placebo (VNO; six male subjects): −11.7 | EVG response compared with placebo (VNO; women): significantly greater than that to placebo; also recorded: robust mean EVG; also recorded: large EVG | mean peak amplitude of the EVG (electrovomerogram) response (VNO; women): 50 mV | appetite (questionnaire one month after study) (gonadotropin secretion; all subjects): large increase in appetite | gonadotropin secretion (gonadotropin secretion; [4]): No consistent changes | menstrual cycle pattern or ovulation (gonadotropin secretion; [4]): no changes | appetite ([1]; all subjects, not after placebo): increase in appetite for at least one week | body weight [1]: persistent increase in body weight | appetite [2]: perceived increase in appetite for at least one week | body weight [3]: treatment-related increase | food intake [3]: treatment-related increase
